Legend:
Format in all cases: functional, cell-based
[1] = system: A549; assay: Cytotoxicity against human A549 cells
[2] = system: HCT-116; assay: Cytotoxicity against human HCT116 cells
[3] = system: HT-29; assay: Cytotoxicity against human HT-29 cells

Measured: IC50

C[N+](C)(C)[C@@H](Cc1ccc(O)cc1)C(=O)N[C@@H]1C(=O)N[C@@H](Cc2ccccc2)C(=O)N[C@H](C(=O)[O-])Cc2ccc(cc2)O[C@@H]1c1ccccc1
> 15 µM: all assays above

From ChEMBL document CHEMBL4190274, “A Cyclopeptide and a Tetrahydroisoquinoline Alkaloid from Ophiorrhiza nutans” (J Nat Prod, 2017)
